Test results from a melting point compilation (Tetko et al.; mined from patent text by program, amines drawn as free bases though some values may be those of a salt).
Residues, ends and D or L forms follow the SMILES beside them. *: point of attachment. NHPhenethyl = c1ccc(CCN*)cc1

melting point [°C] | SMILES
124 to 126 | BrC(Br)(Br)c1ccc2cc(I)ccc2n1
168 to 170 | CN(C)c1ccc(CCc2nc3sc4c(n3c2CO)CCCCC4)cc1
125 to 127 | CC(C)c1ccc(C(=O)N2CCCCC2)c(NS(=O)(=O)c2cccc3nsnc23)c1
213 to 216 | Cc1nc2c(N)nc3c(c2n1CCCCS(C)(=O)=O)CCCC3
114 to 115 | CCOC(=O)CCCCC(=O)c1c(CBr)n(C(C)=O)c(=O)n1C(C)=O
137 to 138 | COc1cc(COc2nn(-c3ccccc3)cc2/C=C\c2cscn2)ccc1OCc1nc(-c2ccco2)oc1C
108 to 110 | Cc1cc(C=O)c(C)c(Br)c1C
48 to 49 | CCOC(=O)C=CC(C)=CC=O
188 to 190 | CC1=Cc2ccc(Cl)cc2C(c2ccc([N+](=O)[O-])c(C)c2)=NN1C(=O)Oc1ccccc1
140 | COc1ccc(-n2c(-c3ccc([N+](=O)[O-])cc3)nnc2C(C)O)cc1 (centres undefined)
222 to 224 | CC(C)C(=O)NCCCCn1c(CO)nc2c(N)nc3ccccc3c21
126 to 129 | CCOC(=O)c1ccc(NCCOc2ccccc2)cc1
135 to 137 | O=C(O)C(CC=Cc1ccccc1)Cc1cccc2ccccc12 (centres undefined)
198 to 200 | CCc1nc2c(N)nc3ccccc3c2n1CCOCCNC(=O)NC1CCCCC1
85 | CNC(=O)C1CN(CC(=O)Nc2c(Cl)cc(C(C)=O)cc2Cl)CCN1CCCCN(c1ccc(F)cc1)c1ccc(F)cc1 (centres undefined)
92 | ON=CCc1cccs1
199 | Cc1cc2ncnc(N3CCc4ccc(Cl)cc43)c2cc1C
107 to 111 | O=S(=O)(c1ccc(-c2ccc(C3COC(c4c(F)cccc4F)=N3)cc2)cc1)C(F)F (centres undefined)
115 to 117 | CC(=O)OCCc1cc2c(s1)SCCc1cc(=O)n(-c3ccc(Cl)cc3)nc1-2
92 to 94 | O=C(Nc1ccc(N2CCN(Cc3ccccc3)CC2)c(Cl)c1)c1ccccn1
185 to 192 | COc1cc(/C=C/C(=O)CC(=O)/C=C/c2ccc(O)cc2Cl)ccc1O
178 | CC(=O)Nc1cccc(-n2nc(C(C)C)c(=O)n(Cc3ccc(Cl)cc3)c2=O)c1
106 to 108 | N#CC1c2ccccc2Cc2ccccc21
256 | CC(=O)Nc1ccc(N2CCN(c3ccc(O)cc3)CC2)cc1

melting point [°C] | SMILES
170 to 173 | O=C(O)C1=Cc2cc(S(=O)(=O)NCc3ccco3)ccc2OC1C(F)(F)F (centres undefined)
168 to 172 | COc1cc2oc(=O)c3c(c2cc1OC)CCN(CC(C)=O)C3
118 to 125 | CC=C1CCC2C3CCC4CC(O)CCC4(C)C3C(N)CC12C (centres undefined)
175 to 178 | COC(=O)C(C#N)=C(C=CN(C)C)c1ccc(OC)cc1
124 to 125 | Cc1ccc(-c2ccc(C(=O)c3ccccc3)cc2)cc1
133 to 134 | CN1CCCC1c1ccc(CCNC(=O)c2ccc(Br)cc2)cc1 (centres undefined)
225 to 227 | O=C1CCC(N2Cc3c(OCc4ccc(CN5CCN(S(=O)(=O)c6ccc(F)c(F)c6)CC5)cc4)cccc3C2=O)C(=O)N1 (centres undefined)
233 to 234 | CN1CCC(N(C)C(=O)CNS(=O)(=O)c2ccc(Nc3nccc(Nc4ccc(F)cc4)n3)cc2)CC1
107 to 108 | O=C(NCCO)c1cc(F)cc(-c2ccc(F)c3cc(Cc4cccc(C(F)(F)F)c4)sc23)c1
213 to 214 | Cc1cccc(-c2nc(CCOc3ccc(C=CC=C4OC(=O)NC4=O)cc3)c(C)o2)c1
125 | O=C(c1ccccc1)c1cc([N+](=O)[O-])ccc1NC1CC1
132 to 135 | CC(C)NC(=O)CC(=O)C=Cc1ccccc1[N+](=O)[O-]
160 to 161 | CS(=O)(=O)c1cc(F)cc(Cc2cc3cccc(-c4cccc(C(=O)NCC(N)=O)c4)c3s2)c1
104 to 108 | COc1ccnc(CSc2nc3cc(OC(F)F)ccc3[nH]2)c1OC
195 to 196 | O=c1oc(-c2ccccc2)cc(O)c1CCCc1ccccc1
192 to 193 | CC(C)(C)Nc1cc(Cl)nc(Cl)n1
137 to 139 | C#Cc1cnc(OCCC)c(-c2nc3c(CC)nn(CCN4CCOCC4)c3c(=O)[nH]2)c1
149 to 150 | CN(C)C=CC=C(C#N)C(=O)N(C)C
93 to 95 | CN1C=NN(c2cccc(N)c2)N1
68 to 70 | COC(=O)CCCOc1cc([N+](=O)[O-])c(CBr)cc1OC
160 | O=c1nc(-c2ccccc2)c2cc([N+](=O)[O-])ccc2n1CC1CC2CCC1C2 (centres undefined)
234 to 236 | CC1C=C2C(=CC=CC23NC(=O)NC3=O)O1 (centres undefined)
94 to 96 | Nc1sc2c(c1C(=O)c1ccc3ccccc3c1)CCN(Cc1ccc(F)cc1)C2
> 340 | N#Cc1ccc(-c2ccc(O)c(-c3nc4cc(C#N)ccc4[nH]3)c2)cc1

melting point [°C] | SMILES
185 to 187 | CCOC(=O)N1CCN(CC2CSC3=C(O2)c2ccccc2C(=O)C3=O)CC1 (centres undefined)
118 to 120 | CC12CCC(=O)C=C1CCC1C2CCC2(C)C(n3ccnn3)=CCC12 (centres undefined)
105 to 108 | COC(=O)C(=O)c1cn2c3c(cccc13)CCC2
190 to 192 | COc1cc(C(=O)c2ccnc3ccccc23)ccc1O
87 | Cc1c(F)c(Oc2cccc(C(F)(F)F)c2)nc(-c2ccc(C(F)(F)F)cc2)c1F
72.5 to 73.5 | COc1cc(C(S)CS)cc(OC)c1OC (centres undefined)
230 to 240 | CCCc1nc2ccnn2c(O)c1Cc1ccc(-c2ccccc2C(=O)O)cc1
53 to 56 | CCCCCCCc1ccc(C(=O)CCCCC(=O)O)cc1[N+](=O)[O-]
114 to 115 | CCOC(=O)C1=NS(=O)(=O)c2ccccc21
82 to 84 | CCOP(=O)(/C=C/c1cn(CC)nc1OCc1ccc(OCc2nc(-c3ccco3)oc2C)c(OC)c1)OCC
> 250 | N=C(N)c1ccc(C(=O)Nc2cc(C(=O)NCCC(=O)O)ccc2OCc2ccccc2)cc1
169 to 171 | COCOc1ccccc1-c1cc(-c2cccc([N+](=O)[O-])c2)c(C#N)c(N)n1
171 to 174 | COc1nc(NC(=O)NS(=O)(=O)c2ccccc2C(=O)OCCCl)nc(OC)n1
202 to 204 | CSC1C(=O)Nc2c(C(=O)c3ccc(F)cc3)cc(Cl)cc21 (centres undefined)
163 to 164 | O=C1N(c2ccc(Br)cc2F)C(=S)C2CCCCC12O (centres undefined)
215 to 217 | CC1CC(=O)NN=C1c1ccc(NC(=O)CCBr)cc1 (centres undefined)
292 to 294 | COc1ccc(-c2cc(O)nc(Nc3ccc(OC)c(Cl)c3)n2)cc1
256 | Nc1ncc(-c2ccc(=O)[nH]n2)c(-c2cccnc2)n1
242 to 244 | Cc1nc(-n2ccc(OCc3ccc(OC(F)F)cc3)cc2=O)sc1C(=O)NCc1ccc(F)cc1
160 to 162 | Cc1cccc(CC(NC(=O)C(c2ccccc2)c2ccccc2)C(=O)NC(C#N)COCc2cccc(C(=O)O)c2)c1 (centres undefined)
> 260 | COc1ccc2c(n1)C(=O)c1nccc3c1c-2nc1ccccc13
130 to 132 | O=C(Cc1ccccc1)NC1C(=O)N2CC(C(=O)OCc3ccccc3)SC12 (centres undefined)
281 to 284 | CC(C)(C)c1ccc2c(c1)-c1c(c(C(=O)C(C#N)C(=O)NCc3ccccc3)nn1-c1ccccc1)CO2 (centres undefined)
97 to 98 | CC(C)c1c(C=C(Cl)Cl)c(-c2ccc(F)cc2)n2c1CCCC2

melting point [°C] | SMILES
95 to 98 | COC(=O)CCc1oc2ccc(C#N)cc2c1C(=O)c1ccc(OC)cc1
86 to 87 | O=C1c2ccccc2C(=O)N1CC(=CF)CBr
225 to 226 | Cc1cc2c(-c3ccccc3C)c(NC(=O)Nc3ccc(F)cc3F)c(=O)n(C)c2cc1C
130 to 134 | CC(C)c1cccc(C(C)C)c1NC(=O)NS(=O)(=O)Cl
154 to 157 | CCCCc1nc(Cl)c(CC(=O)OC)n1Cc1ccc(NS(=O)(=O)C(F)(F)F)cc1
172 | CC=CC(C)=C1C(=O)OC(=O)C1c1cc(C)n(-c2ccccc2)c1C (centres undefined)
55 to 56 | CC(=O)C(c1ccccc1)c1cccc2c1NCC2 (centres undefined)
68 to 71 | C=Cc1nc(C(=O)OC)c(Cl)c(N)c1F
150 to 158 | CNC(=O)C(Cc1ccc(OC)cc1)NC(=O)C(C)(CC(C)C)c1ccc(OC)cc1SCc1ccc(OC)cc1 (centres undefined)
156 to 159 | CC[C@H](C)[C@H](NC(=O)[C@@H](N)CS)C(=O)NCCc1ccccc1 (H-Cys-Ile-NHPhenethyl)
46 to 50 | C#Cc1ccc(SC)cc1Cl
263 to 264 | CC1(C)Oc2ccc(C#N)cc2[C@@H](NC(=NC#N)N2CCCC2)[C@@H]1O (relative stereo)
160 | Cc1ccc(S(=O)(=O)OCC2CCc3ccc4[nH]c(C(F)(F)F)nc4c3O2)cc1 (centres undefined)
294 to 300 | O=c1ccc2c(CO)nccc2[nH]1
104 to 107 | O=C(O)CCCCCOc1ccc([N+](=O)[O-])cc1
> 260 | CCCCCCc1ccc(-c2ccc(-c3ncc(C(N)=O)cn3)cc2)cc1
180 to 182 | CCCCc1oc2ccc(-c3nc(C)no3)cc2c1C(=O)c1ccc(O)cc1
> 250 | Nc1nc(N)nc(-c2ccc(-c3ccc([N+](=O)[O-])cc3)cc2)n1
128 to 130 | CONC(=O)Nc1ccc(-c2sc3c(c2CNC(C)c2ccccc2)c(=O)n(-c2ccc(F)cn2)c(=O)n3Cc2c(F)cccc2F)cc1 (centres undefined)
251 to 253 | Cc1ccc(-c2nc(C)c3c(=O)[nH]ncn23)cc1
76 to 78 | CN(C)S(=O)(=O)NCC1COc2ccccc2O1 (centres undefined)
149 to 150 | Nc1ccccc1Oc1ccc2c(c1)OCC(=O)N2

SMILES | melting point [°C]
CCN=C(SC)N(C)Cc1ccc(Cl)nc1 | 132 to 133
O=C(CCl)Oc1ccccc1O | 32 to 35
CCC1CC2C3CCC4=CC(=O)CCC4C3CCC2(C)C1OC(=O)COC(C)=O (centres undefined) | 98 to 100
CN1CCN(c2ccc(O)c3c2C[C@H](N)CC3)CC1 | 238 to 239
Cc1nc2n(c1CN(C)C)-c1ccc(Cl)cc1C(c1ccccc1Cl)=NC2 | 191 to 194
